Source: patent EP1206258B1, “COMPOSITIONS CONTAINING ESTERS FOR TREATING PARASITIC INFESTATIONS OF ORGANISMS” (priority 1999, dated 2001)

What was measured:
[1] = system: Aspergillus nidulans; test: growth inhibition test on SAB agar, A. nidulans; type: cell-based; conditions: 50ml L-^1 and higher doses; further experiments, data not shown
[2] = system: Fusarium culmorum; test: growth inhibition test on SAB agar, F. culmorum; type: cell-based
Protocol: (§1) The antifungal activity of ethyl trans-cinnamate against a number of different fungi was investigated by means of in a simple growth inhibition test.
(§2) The following quantities of Ethyl trans-Cinnamate were added to Sabourand Dextrose agar (SAB); 50 ml L^-1, 4ml L^-1, 2ml L^-1, 1ml L^-1, 400 µl L^-1, 200 µl L^-1 and 40 µl L^-1. […] These were then autoclaved and poured into standard Petri dishes. […] Duplicate plates of each concentration, plus control plates containing only SAB Agar, where then separately inoculated with, four different species of fungi, these were Aspergillus nidulans, Penicillium digitatum, Rhizopus arrhizus and Fusarium culmorum. Inoculation was carried out using a single stab at the centre of each Petri dish. The plates were then incubated at 30°C for 6 days and daily measurements of mycobial growth where taken every 24 hours.

[3] = system: Psoroptes cuniculi; test: in vitro immersion assay on the mite Psoroptes cuniculi; conditions: for mites had died: exposed for 24 hours, control 8%
Protocol: A series of in vitro assays were conducted to examine the effects of the compound trans-cinnamic acid ethyl ester on the mite Psoroptes cuniculi. This mite infests rabbits and is very similar to the mite Psoroptes ovis which infests sheep and causes sheep scab.
The mites were taken from the ears of infested rabbits and exposed for 24 hours to the active compound at concentrations of 10, 1 or 0.1 % (V/V). The concentrations were obtained by serial dilution of the compound in 0.05% sodium dodecyl sulphate (SDS).
This is illustrated in Figure 2 of the accompanying drawings.
The LC95 was 6.29% (95% confidence interval 4.98-8.88).
Line (1) represents adult males, line (2) adult females and (3) female nymphs.
Thus, trans-cinnamic acid ethyl ester gives greater than 50% levels of mortality within 24 hours, for all life cycle stages of P. cuniculi after short contact times (1 min) at concentrations of 2.2% (V/V). At one minute contact time, concentrations of greater than 6% (V/V) are required to bring about mortality of greater than 95%. Recent theoretical analysis using simulation modelling (Wall, unpublished) has shown that sustained mortality of greater than 50% per day is required to suppress a growing population of P. ovis.

[4] = system: Penicillium digitatum; test: growth inhibition test on SAB agar, P. digitatum; type: cell-based; parameters: key to Growth of P. digitatum: - = No Growth; + = Growth; ++ = Extensive Growth
Protocol: as §1, §2

[5] = system: Rabbit; conditions: Dermal, FRMM; cited from earlier work
[6] = 50ml L-^1 and higher doses, further experiments, data not shown

In the case of `CCOC(=O)/C=C/c1ccccc1` [trans-cinnamic acid ethyl ester], the “duration of complete inhibition of growth” value [1] was “at least 8 days”, the “Level of Radial Growth (mm) of F. culmorum” value (“Level of Radial Growth” below) ([2]; 1ml L^-1, Day 1) was 0 mm and the “Level of Radial Growth” value ([2]; 1ml L^-1, Day 2) was 0 mm. For the same molecule, the “Level of Radial Growth” value ([2]; 1ml L^-1, Day 3) was 0 mm, the “Level of Radial Growth” value ([2]; 1ml L^-1, Day 4) was 0 mm and the “Level of Radial Growth” value ([2]; 1ml L^-1, Day 5) was 0 mm. For the same molecule, the “Level of Radial Growth” value ([2]; 1ml L^-1, Day 6) was 0 mm, the “Level of Radial Growth” value ([2]; 2ml L^-1, Day 1) was 0 mm and the “Level of Radial Growth” value ([2]; 2ml L^-1, Day 2) was 0 mm. For the same molecule, the “Level of Radial Growth” value ([2]; 2ml L^-1, Day 3) was 0 mm, the “Level of Radial Growth” value ([2]; 2ml L^-1, Day 4) was 0 mm and the “Level of Radial Growth” value ([2]; 2ml L^-1, Day 5) was 0 mm. For the same molecule, the “Level of Radial Growth” value ([2]; 2ml L^-1, Day 6) was 0 mm, the “Level of Radial Growth” value ([2]; 4ml L^-1, Day 1) was 0 mm and the “Level of Radial Growth” value ([2]; 4ml L^-1, Day 2) was 0 mm. The “Level of Radial Growth” value ([2]; 4ml L^-1, Day 3) was 0 mm, the “Level of Radial Growth” value ([2]; 4ml L^-1, Day 4) was 0 mm and the “Level of Radial Growth” value ([2]; 4ml L^-1, Day 5) was 0 mm. The “Level of Radial Growth” value ([2]; 4ml L^-1, Day 6) was 0 mm, the “Level of Radial Growth” value ([2]; 40µl L^-1, Day 1) was 0 mm and the “Level of Radial Growth” value ([2]; 40µl L^-1, Day 2) was 0 mm. For the same molecule, the “Level of Radial Growth” value ([2]; 40µl L^-1, Day 3) was 1 mm, the “Level of Radial Growth” value ([2]; 40µl L^-1, Day 4) was 1 mm and the “Level of Radial Growth” value ([2]; 40µl L^-1, Day 5) was 2 mm. For the same molecule, the “Level of Radial Growth” value ([2]; 40µl L^-1, Day 6) was 6 mm, the “duration of complete inhibition of growth” value [2, 6] was “at least 8 days” and the inhibition of growth ([2]; 50ml L-^1 level) was “complete inhibition of growth”. For the same molecule, the “Level of Radial Growth” value ([2]; 50 ml L^-1, Day 1) was 0 mm, the “Level of Radial Growth” value ([2]; 50 ml L^-1, Day 2) was 0 mm and the “Level of Radial Growth” value ([2]; 50 ml L^-1, Day 3) was 0 mm. For the same molecule, the “Level of Radial Growth” value ([2]; 50 ml L^-1, Day 4) was 0 mm, the “Level of Radial Growth” value ([2]; 50 ml L^-1, Day 5) was 0 mm and the “Level of Radial Growth” value ([2]; 50 ml L^-1, Day 6) was 0 mm. The “Level of Radial Growth” value ([2]; 200µl L^-1, Day 1) was 0 mm, the “Level of Radial Growth” value ([2]; 200µl L^-1, Day 2) was 0 mm and the “Level of Radial Growth” value ([2]; 200µl L^-1, Day 3) was 0 mm. For the same molecule, the “Level of Radial Growth” value ([2]; 200µl L^-1, Day 4) was 1 mm, the “Level of Radial Growth” value ([2]; 200µl L^-1, Day 5) was 2 mm and the “Level of Radial Growth” value ([2]; 200µl L^-1, Day 6) was 6 mm. The “Level of Radial Growth” value ([2]; 400µl L^-1, Day 1) was 0 mm, the “Level of Radial Growth” value ([2]; 400µl L^-1, Day 2) was 0 mm and the “Level of Radial Growth” value ([2]; 400µl L^-1, Day 3) was 0 mm. The “Level of Radial Growth” value ([2]; 400µl L^-1, Day 4) was 1 mm, the “Level of Radial Growth” value ([2]; 400µl L^-1, Day 5) was 2 mm and the “Level of Radial Growth” value ([2]; 400µl L^-1, Day 6) was 6 mm. The LT50 ([3]; 0.1% (V/V), same as control (0.05% SDS only)) was “approximately 2.5 days”, the “LD 25 Concentration (% V/V)” value ([3]; 24 hours after exposure) was 0.53 % V/V and the “LD 50 Concentration (% V/V) (LC50)” value ([3]; 24 hours after exposure) was 2.21 % V/V. The “LD 75 Concentration (% V/V)” value ([3]; 24 hours after exposure) was 3.88 % V/V, the “LD 95 Concentration (% V/V) (LC95)” value ([3]; 24 hours after exposure) was 6.29 % V/V and the “50% mortality (LT50)” value ([3]; concentration 1%) was 1 days. For the same molecule, the “50% mortality (LT50)” value ([3]; concentration 10%) was 0.5 days, the mites had died ([3]; 0.1 % (V/V) in 0.05% SDS) was 20% and the mites had died ([3]; 1 % (V/V) in 0.05% SDS) was 74%. For the same molecule, the mites had died ([3]; 10 % (V/V) in 0.05% SDS) was 100%, the “concentrations required to bring about mortality of greater than 95%” value ([3]; one minute contact time) was “greater than 6 % (V/V)” and the levels of mortality ([3]; within 24 hours, all life cycle stages, contact time 1 min, 2.2% (V/V)) was “greater than 50%”. The “Growth of P. digitatum” value ([4]; 1ml L^-1, Day 1) was “-”, the “Growth of P. digitatum” value ([4]; 1ml L^-1, Day 2) was “-” and the “Growth of P. digitatum” value ([4]; 1ml L^-1, Day 3) was “-”. For the same molecule, the “Growth of P. digitatum” value ([4]; 1ml L^-1, Day 4) was “+”, the “Growth of P. digitatum” value ([4]; 1ml L^-1, Day 5) was “+” and the “Growth of P. digitatum” value ([4]; 1ml L^-1, Day 6) was “+”. For the same molecule, the “Growth of P. digitatum” value ([4]; 2ml L^-1, Day 1) was “-”, the “Growth of P. digitatum” value ([4]; 2ml L^-1, Day 2) was “-” and the “Growth of P. digitatum” value ([4]; 2ml L^-1, Day 3) was “-”. For the same molecule, the “Growth of P. digitatum” value ([4]; 2ml L^-1, Day 4) was “-”, the “Growth of P. digitatum” value ([4]; 2ml L^-1, Day 5) was “-” and the “Growth of P. digitatum” value ([4]; 2ml L^-1, Day 6) was “-”. For the same molecule, the “Growth of P. digitatum” value ([4]; 4ml L^-1, Day 1) was “-”, the “Growth of P. digitatum” value ([4]; 4ml L^-1, Day 2) was “-” and the “Growth of P. digitatum” value ([4]; 4ml L^-1, Day 3) was “-”. For the same molecule, the “Growth of P. digitatum” value ([4]; 4ml L^-1, Day 4) was “-”, the “Growth of P. digitatum” value ([4]; 4ml L^-1, Day 5) was “-” and the “Growth of P. digitatum” value ([4]; 4ml L^-1, Day 6) was “-”. The “Growth of P. digitatum” value ([4]; 40µl L^-1, Day 1) was “-”, the “Growth of P. digitatum” value ([4]; 40µl L^-1, Day 2) was “++” and the “Growth of P. digitatum” value ([4]; 40µl L^-1, Day 3) was “++”. The “Growth of P. digitatum” value ([4]; 40µl L^-1, Day 4) was “++”, the “Growth of P. digitatum” value ([4]; 40µl L^-1, Day 5) was “++” and the “Growth of P. digitatum” value ([4]; 40µl L^-1, Day 6) was “++”. The “duration of complete inhibition of growth” value [4, 6] was “at least 8 days”, the inhibition of growth ([4]; 50ml L-^1 level) was “complete inhibition of growth” and the “Growth of P. digitatum” value ([4]; 50 ml L^-1, Day 1) was “-”. For the same molecule, the “Growth of P. digitatum” value ([4]; 50 ml L^-1, Day 2) was “-”, the “Growth of P. digitatum” value ([4]; 50 ml L^-1, Day 3) was “-” and the “Growth of P. digitatum” value ([4]; 50 ml L^-1, Day 4) was “-”. The “Growth of P. digitatum” value ([4]; 50 ml L^-1, Day 5) was “-”, the “Growth of P. digitatum” value ([4]; 50 ml L^-1, Day 6) was “-” and the “Growth of P. digitatum” value ([4]; 200µl L^-1, Day 1) was “-”. The “Growth of P. digitatum” value ([4]; 200µl L^-1, Day 2) was “++”, the “Growth of P. digitatum” value ([4]; 200µl L^-1, Day 3) was “++” and the “Growth of P. digitatum” value ([4]; 200µl L^-1, Day 4) was “++”. For the same molecule, the “Growth of P. digitatum” value ([4]; 200µl L^-1, Day 5) was “++”, the “Growth of P. digitatum” value ([4]; 200µl L^-1, Day 6) was “++” and the “Growth of P. digitatum” value ([4]; 400µl L^-1, Day 1) was “-”. For the same molecule, the “Growth of P. digitatum” value ([4]; 400µl L^-1, Day 2) was “+”, the “Growth of P. digitatum” value ([4]; 400µl L^-1, Day 3) was “++” and the “Growth of P. digitatum” value ([4]; 400µl L^-1, Day 4) was “++”. For the same molecule, the “Growth of P. digitatum” value ([4]; 400µl L^-1, Day 5) was “++”, the “Growth of P. digitatum” value ([4]; 400µl L^-1, Day 6) was “++” and the LDSO [5] was >5000 mg·kg.
